{"source": "paper PMC10111022", "about": "“Comparison of pharmacological inhibitors of lysine-specific demethylase 1 in glioblastoma stem cells reveals inhibitor-specific efficacy profiles” (Frontiers in Neurology, 2023)", "key": {"MDA-GSC 262": {"tested_on": "MDA-GSC 262", "assay": "Cell viability dose response (IC50), MDA-GSC 262", "assay_type": "cell-based", "details": "Homo sapiens, mean of three independent experiments", "description": "(§1) MDA-GSCs were plated at 50,000 cells/well into 12-well plates at and allowed to grow for 5 days until neurospheres were formed. The cells were then treated with either TCP, GSK-LSD1, or RN-1 at various concentrations for 5 days. Next, the cells were collected and neurospheres were dissociated with Accutase (BioLegend; San Diego, CA). Cell viability was determined using a trypan dye exclusion assay and read with the Vi-Cell XR Cell Viability Analyzer (Beckman Coulter; Brea, CA). NHAs were plated at 50,000 cells/well into 12-well plates and allowed to adhere overnight. The following day, NHAs were treated with the LSD1 inhibitors. After 5 days, the cells were detached using TrypLE and assessed with the trypan blue dye exclusion assay.\n(§2) The alamarBlue cell viability (Bio-Rad; Hercules, CA) was performed on the MDA-GSCs according to the manufacturer’s protocol. The cells were plated at 5,000 cell/well into a 96-well plate and allowed to grow for 5 days. After 5 days, the alamarBlue reagent was added and fluorescence was measured with the Synergy 2 (BioTek Instruments; Winooski, VT) plate reader according to the manufacturer’s protocol."}, "MDA-GSC 311": {"tested_on": "MDA-GSC 311", "assay": "Cell viability dose response (IC50), MDA-GSC 311", "assay_type": "cell-based", "details": "Homo sapiens, mean of three independent experiments", "description": "as §1, §2"}, "MDA-GSC 20": {"tested_on": "MDA-GSC 20", "assay": "Cell viability dose response (IC50), MDA-GSC 20", "assay_type": "cell-based", "details": "Homo sapiens, mean of three independent experiments", "description": "as §1, §2"}, "MDA-GSC 17": {"tested_on": "MDA-GSC 17", "assay": "Cell viability dose response (IC50), MDA-GSC 17", "assay_type": "cell-based", "details": "Homo sapiens, mean of three independent experiments", "description": "as §1, §2"}, "MDA-GSC 6–27": {"tested_on": "MDA-GSC 6–27", "assay": "Cell viability dose response (IC50), MDA-GSC 6–27", "assay_type": "cell-based", "details": "Homo sapiens, mean of three independent experiments", "description": "as §1, §2"}, "MDA-GSC 7–2": {"tested_on": "MDA-GSC 7–2", "assay": "Cell viability dose response (IC50), MDA-GSC 7–2", "assay_type": "cell-based", "details": "Homo sapiens, mean of three independent experiments", "description": "as §1, §2"}, "NHA": {"tested_on": "NHA", "assay": "Cell viability dose response (IC50), normal human astrocytes", "assay_type": "cell-based", "description": "as §1, §2"}, "MDA-GSC lines": {"tested_on": "MDA-GSC lines", "assay": "Cell viability across the panel of nine MDA-GSC lines", "assay_type": "cell-based, Human", "details": "many/several MDA-GSC lines, dose response curves Figure 2", "description": "as §1, §2"}, "[1]": {"tested_on": "MDA-GSC311, MDA-GSC20, MDA-GSC23, MDA-GSC8-11", "assay": "Colony (neurosphere) formation assay", "assay_type": "cell-based, Human", "details": "three of the four cell lines; 200-400 μM, 3 weeks", "description": "Colony formation assay was performed on MDA-GSC 311, MDA-GSC 20, MDA-GSC 23, and MDA-GSC 8–11. Cells were plated in triplicate into clear, flat-bottom 96-well plates at 3 cells/well into 100 μL of media. MDA-GSCs were treated with 100 μL of GSK-LSD1 and allowed to grow for 3 weeks at 37°C before scoring. The final concentration of GSK-LSD1 in each well was determined using the IC50 in each cell line (MDA-GSC 311 at 200 μM, MDA-GSC 20 at 300 μM, MDA-GSC 23 at 200 μM, MDA-GSC 8–11 at 400 μM). Clonogenicity was scored using the Cell3iMager (Screen Life Science; Elk Grove Village, IL) to count the number of wells with colony formation as positive and wells without colony formation as negative."}, "[2]": {"tested_on": "MDA-GSC20 orthotopic xenograft", "assay": "Intracranial orthotopic xenograft model, bioluminescence tumor burden and survival", "assay_type": "in vivo, athymic nude mice", "description": "All animal experiments were approved by the University of Texas MD Anderson Cancer Center Institutional Animal Care and Use Committee (IACUC) under protocol 638 (P.I. Chandra). An equal number of male and female athymic nude mice aged 4–6 weeks old were bolted with guide screws by MD Anderson’s Brain Tumor Center Animal Core as previously described ([16]). Ketamine/xylazine was administered for anesthesia and buprenorphine or buprenorphine sustained-release (SR) was administered for analgesia during and after the surgery. MDA-GSC20 luciferase labelled cells were resuspended in PBS and 500,000 cells were intracranially implanted into each mouse via guide screw. To monitor tumor engraftment and tumor progression throughout treatment, each mouse was imaged weekly using an IVIS 200 imager (Perkin Elmer; Waltham, MA). Mice were anesthetized via inhalation of isoflurane and injected with 200 μL of D-Luciferin (GoldBio; St Louis, MO) subcutaneously. Bioluminescence signal in the mice was read and reported as photons/s.\n(§3) Once confirmation of intracranial tumor engraftment at 7 days post-engraftment, the mice were equally randomized into groups to receive either GSK-LSD1 or the vehicle control. The mice received GSK-LSD1 1 mg/kg diluted in DMSO and PBS (5 and 95%, respectively) via intraperitoneal injection (200 μL/mouse) while the control mice received the untreated vehicle in parallel. In accordance with the approved IACUC protocol (No: 638-RN03) at MD Anderson Cancer Center, treatment continued until the mice succumbed to tumor burden and were found in a moribund condition as determined by neurological impairment (hydrocephalus, seizures, inactivity, and/or ataxia) or morbidity (hunched posture or weight loss). At this time mice were euthanized by both carbon dioxide exposure and cervical dislocation. […]"}, "NK or T-cells": {"tested_on": "NK or T-cells", "assay": "Flow cytometry of peripheral blood NK and T-cell subsets at day 50", "assay_type": "in vivo, athymic nude mice", "details": "peripheral blood mononuclear cells", "description": "as §3, with “dislocation. Flow cytometric characterization of immune cell subsets was carried out in blood samples obtained from mice (four control mice and six GSK-LSD1 mice) in each group at day 50 via cardiac puncture and the sample was processed using Ficoll (GE Healthcare; Chicago, IL) centrifugation to collect the peripheral blood mononuclear cells (PBMCs). Next, PBMCs were stained with the Ghost Dye Violet (Tonbo; San Diego, CA) and then incubated with antibodies at 4°C for 25 min before analysis.” for “dislocation.”"}, "MDA-GSC20": {"tested_on": "MDA-GSC20", "assay": "qPCR of resistance-related genes, MDA-GSC20", "assay_type": "cell-based, Human", "details": "MDA-GSC20 (resistant)", "description": "(§4) Total RNA was extracted using RNeasy Plus Mini Kit (Qiagen; Hilden, Germany) following the manufacturer’s protocol. cDNA was synthesized with the iScript cDNA synthesis kit (Bio-Rad; Hercules, CA), qPCR was performed using Forget-Me-Not EvaGreen qPCR kit (Biotium; Fremont, CA), and samples were analyzed with the LightCycler96 (Roche; Basel, Switzerland). Cq values were normalized to PPIA and reported as relative fold change from untreated control."}, "MDA-GSC8-11": {"tested_on": "MDA-GSC8-11", "assay": "qPCR of resistance-related genes, MDA-GSC8-11", "assay_type": "cell-based, Human", "details": "MDA-GSC8-11 (resistant)", "description": "as §4"}, "MDA-GSC17": {"tested_on": "MDA-GSC17", "assay": "qPCR of resistance-related genes, MDA-GSC17", "assay_type": "cell-based, Human", "details": "MDA-GSC17 (sensitive)", "description": "as §4"}}}
{"smiles": "c1ccc([C@@H]2C[C@H]2NC2CCNCC2)cc1", "note": "[GSK-LSD1]", "values": [{"measurement": "IC50", "setting": "MDA-GSC 262", "value": "> 750", "unit": "µM"}, {"measurement": "IC50", "setting": "MDA-GSC 311", "value": "> 750", "unit": "µM"}, {"measurement": "IC50", "setting": "MDA-GSC 20", "value": "> 750", "unit": "µM"}, {"measurement": "IC50", "setting": "MDA-GSC 17", "value": 253, "unit": "µM"}, {"measurement": "IC50", "setting": "MDA-GSC 6–27", "value": 598, "unit": "µM"}, {"measurement": "IC50", "setting": "MDA-GSC 7–2", "value": 518, "unit": "µM"}, {"measurement": "IC50", "setting": "NHA; Homo sapiens, Astrocyte, NHA, mean of three independent experiments", "value": "> 750", "unit": "µM"}, {"measurement": "effect on NHA viability", "setting": "NHA; NHA treated at the maximum concentration tested for each compound", "value": "minimal effect"}, {"measurement": "concentrations at which MDA-GSC viability was reduced", "setting": "MDA-GSC lines", "value": "250 to 750", "unit": "µM"}, {"measurement": "capacity to form neurospheres from single cells", "setting": "[1]", "value": "reduced capacity to form neurospheres"}, {"measurement": "rate of tumor progression", "setting": "[2]; 1 mg/kg intraperitoneal, week 11, vs control mice", "value": "lower rate of tumor progression"}, {"measurement": "tumor burden (bioluminescence)", "setting": "[2]; 1 mg/kg intraperitoneal, week seven, vs control", "value": "strong regression in tumor burden"}, {"measurement": "overall survival", "setting": "[2]; continued dosing beyond week 11", "value": "ineffective to improve overall survival"}, {"measurement": "cytotoxic effects on NK or T-cells", "setting": "NK or T-cells", "value": "does not have cytotoxic effects"}, {"measurement": "expression of resistance-related genes (FTH1, RAB39B, HKDC1, FAM213A)", "setting": "MDA-GSC20", "value": "increase in all four genes"}, {"measurement": "expression of resistance-related genes", "setting": "MDA-GSC8-11", "value": "increase in the same two gene"}, {"measurement": "expression of resistance-related genes", "setting": "MDA-GSC17", "value": "not"}]}
